Assay results reported in US20260008856A1, “METHODS OF TREATING DISEASE USING ANTI-IL1RAP ANTIBODIES AND ANTIBODY DRUG CONJUGATES” (Bluefin Biomedicine, Inc., priority 2022, published 2026).

How the values were obtained:
[1] = tested on: IL-6 secretion in human whole blood cultures stimulated with HKCA; assay: IL-6 production in human whole blood cultures stimulated with heat-killed Candida albicans; type: cell-based; details: 24 hours, 1 μg/ml alone, combination 1 μg/ml BFB759 + 0.5 μg/ml adalimumab
Excerpt: Materials included Human peripheral blood drawn from 5 healthy donors. Materials also included Anti-human TNF alpha (Adalimumab Biosimilar), BioXCell cat #SIM0001, lot #8024221F1; Heat-killed Candida albicans (HKCA), InvivoGen cat #tlrl-hkca, lot #6292-44-02; RPMI 1640 with L-glutamine and HEPES, Corning cat #10-041-CM; and Human IL-6 DuoSet ELISA, R and D Systems cat #DY206-05. Blood was drawn into heparin tubes from healthy volunteers. Whole blood cultures comprised of whole blood diluted with plain RPMI 1640 medium were set up in sterile 5.0 ml polypropylene snap cap culture tubes. One of the following treatments were added for 1 hour prior to either being left unstimulated or receiving stimulation with 1.5×10^6 cells heat-killed Candida albicans: medium alone (cells alone), 1 μg/ml IgG1 isotype control antibody alone, 1 μg/ml BFB759 alone, 1 μg/ml adalimumab alone, or one of two combination treatments of 1 μg/ml IgG1 isotype control antibody+0.5 μg/ml adalimumab or 1 μg/ml BFB759+0.5 μg/ml adalimumab. The final volume of each culture was 1.0 ml. Cultures were incubated for 24 hours at 37° C./5% CO2. Supernatants harvested from each culture in duplicate were frozen at −80° C. until assayed in duplicate for IL-6 levels by ELISA.

[2] = tested on: normal human dermal fibroblasts (NHDF); assay: IL-6 and IL-8 production in NHDF stimulated with cytokine combo incl. TNF-α; type: cell-based; details: cytokine combo IL-1α/β, IL-36α/β/γ, antibodies 0-20 ug/ml, BFB759 0.5 ug/ml in combination
Description: (§1) Human NHDF cells were plated on 96-well, flat-bottom plates at 4,000 cells/well. […] For combination therapy, 0.5 ug/ml BFB759 was mixed with adalimumab or isotype control antibody at increasing concentrations (0-20 ug/ml, 5-fold dilution) and incubated with cells in duplicate for 45 minutes, prior to the addition of cytokine combo. The plates were then incubated overnight at 37° C., 5% CO2. 24 hours after treatment, supernatants were transferred and assayed for IL-6 and IL-8, as per manufacture's protocol (R&D Systems; Human IL-6 DuoSet ELISA, Human IL-8/CXCL8 DuoSet ELISA). The raw assay data were analyzed using GraphPad Prism 9 software to perform a non-linear regression.

[3] = tested on: TARC production in HDM stimulated human PBMCs; assay: TARC production in HDM stimulated human PBMCs; type: cell-based
Excerpt: Materials included Human peripheral blood mononuclear cells (PBMCs) that were isolated from healthy donor blood and either frozen in liquid nitrogen and thawed prior to analysis or used fresh. Materials also included HDM (house dust mite extract) that was from Greer lab and purchased through Fisher Scientific (NC9756554, Lot #390844). Additionally, Human IL-4 (204-IL-010) was purchased from R&D Systems; Human IL-13 (200-13) was purchased from Peprotech; JAK inhibitors (JAKi) Abrocitinib (HY-107429) and Upadacitinib (HY-19569) were purchased from MedChemExpress; Dexamethasone (D4902) was purchased from Sigma-Aldrich; Dupilumab (HY-P9926) was purchased from MedChemExpress; Tralokinumab was produced by Bluefin Biomedicine according to the published protein sequence; and TARC ELISA kits (DuoSet Cat #DY364, Quantikine Cat #SDN00) were purchased from R&D Systems.
Blood was drawn in heparin tubes from healthy volunteers. PBMCs were isolated by centrifugation of the blood over Ficoll-Paque Plus density gradients using LeucoSep tubes.
(§2) 0.2 million PBMCs in 100 ul medium (RPMI1640, 10% heat-inactivated FBS) were added to each well of 96 well cell culture plate. BFB759 at multiple concentrations in 50 ul medium was added to the wells. The cells were incubated in the incubator for 45 min. Then, 50 ul HDM solution (final concentration 10 ug/ml) was added to the wells. After 7 days incubation, the supernatant was transferred to a new 96 well plate, and used in TARC ELISA right away, or frozen in −80 C freezer for ELISA later. For the combination studies of BFB759 with other drugs, the single agent or combination of drugs were added to the PBMCs, incubated for 45 min, then HDM solution, or HDM and IL-4 or IL-13 solution were added to the wells. The assay was incubated for 7 days, and the supernatant was harvested for TARC ELISA.

[4] = tested on: normal human dermal fibroblasts (NHDF); assay: IL-6 and IL-8 production in NHDF stimulated with cytokine combo incl. IL-17A; type: cell-based; details: cytokine combo IL-1α/β, IL-36α/β/γ, antibodies 0-20 ug/ml, BFB759 0.5 ug/ml in combination
Description: as §1, with “Secukinumab” for “adalimumab”, “Isotype” for “isotype”

[5] = tested on: TARC expression in PBMCs stimulated with HDM and IL-4; assay: TARC in PBMCs treated by HDM and hIL-4; type: cell-based, human; details: HDM 10 ug/ml, IL-4 750 ug/ml; three antibody concentrations
Description: as §2
Dupilumab is approved for treatment of AD (Atopic Dermatitis). It inhibits IL-4/13 signaling by blocking their binding to IL-4Ra. […] (FIG. 15)
In the data shown in FIG. 15, HDM was used at 10 ug/ml, IL-4 was used at […], antibodies were at three different concentrations as shown in the graph. Data shown are mean±s.d.

## adalimumab [reference compound]
[1]
  inhibition of IL-6 secretion: inhibit IL-6 secretion
[2]
  IL-6 production: limited inhibition
  IL-8 production: limited inhibition

## CCCS(=O)(=O)N[C@H]1C[C@@H](N(C)c2ncnc3[nH]ccc23)C1 [Abrocitinib]
[3]; HDM 10 ug/ml, JAKi and dexamethasone 0.1 nM, 10 nM, 1 uM, BFB759 1 ug/ml in combination
  inhibition of TARC in HDM stimulated cells: dose dependent inhibition

## Secukinumab: anti-IL-17A antibody [reference compound]
[4]
  IL-6 production: limited inhibition
  IL-8 production: limited inhibition

## Dupilumab: approved for Atopic Dermatitis; inhibits IL-4/13 signaling by blocking their binding to IL-4Ra
[3]; HDM stimulated PBMCs, same assay
  inhibition of TARC level: does not inhibit TARC level significantly
[3]; antibodies 30 ug/ml, HDM 10 ug/ml
  inhibition of HDM induced TARC level, FIG. 13: does not or minimally inhibits
[5]
  inhibition of TARC expression in the HDM and IL-4 model: partially inhibits
